According to patent US20190352341A1, “MODIFIED PEPTIDES AND THEIR USE FOR TREATING SYSTEMIC LUPUS ERYTHEMATOSUS” (IMMUPHARMA FRANCE SA, priority 2018, published 2019):
Square brackets hold non-standard residues; d marks the D form. Peptide text beside a SMILES is read from it. Met(O) = CS(=O)CC[C@H](N)C(=O)O; pS = N[C@@H](COP(=O)(O)O)C(=O)O

Tests used:
HSC70 protein = target: T1, HSC70 protein (Bos taurus, UniProt P19120); experiment: Affinity of the peptides for HSC70 protein (BIAcore); type: binding, bovine
T1 construct: purchased Stressgen
T1 sequence (P19120 whole entry): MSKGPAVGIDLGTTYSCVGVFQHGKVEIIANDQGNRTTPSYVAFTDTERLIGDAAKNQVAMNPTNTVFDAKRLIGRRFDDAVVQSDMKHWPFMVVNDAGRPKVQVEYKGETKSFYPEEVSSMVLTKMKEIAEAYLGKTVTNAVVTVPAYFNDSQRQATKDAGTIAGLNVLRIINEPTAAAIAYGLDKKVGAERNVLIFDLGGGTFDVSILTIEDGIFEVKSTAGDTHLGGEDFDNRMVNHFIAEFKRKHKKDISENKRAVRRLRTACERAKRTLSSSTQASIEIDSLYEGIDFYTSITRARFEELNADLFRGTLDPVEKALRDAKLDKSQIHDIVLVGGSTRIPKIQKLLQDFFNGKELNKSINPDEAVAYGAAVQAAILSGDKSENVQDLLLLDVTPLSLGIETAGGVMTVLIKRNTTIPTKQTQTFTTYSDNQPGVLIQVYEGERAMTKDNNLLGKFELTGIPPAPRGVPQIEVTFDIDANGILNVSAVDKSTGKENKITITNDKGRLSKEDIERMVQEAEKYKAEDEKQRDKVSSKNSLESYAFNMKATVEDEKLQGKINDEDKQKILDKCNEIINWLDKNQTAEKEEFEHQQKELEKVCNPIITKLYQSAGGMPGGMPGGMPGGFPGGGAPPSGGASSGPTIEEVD
Procedure: BIAcore 3000 system (Biacore AB) was used to evaluate the binding of P140 peptides to HSC70 protein (Page et al., 2009, and 2011). Sensor chip CMS, surfactant P20, amine coupling kit containing N-hydroxysuccinimide (NHS) and N-ethyl-N′-dimethylaminopropyl carbodiimide (EDC), 2-(2-pyridinyldithio)ethaneamine (PDEA) and ethanolamine were from Biacore AB. Biosensor assays were performed with HBS-EP buffer as running buffer (10 mM HEPES, 150 mM NaCl, 3 mM EDTA, 0.005% surfactant P20, pH 7.4). The compounds were diluted in the running buffer. The sensor chip surface was regenerated after each experiment by injecting 10 μL of 10 mM HCl. Recombinant bovine HSC70 (Stressgen) was immobilized on flow cells of a CM5 sensor chip through its thiol groups using 35 μL PDEA in 50 mM borate buffer, pH 8.3 on the NHS/EDC-activated matrix. Then, 35 μL of HSC70 (100 μg/mL in formate buffer, pH 4.3) were injected until a response of 13,000 response units (RU) corresponding to 13 ng/mm^2 of HSC70 was immobilized. Twenty μL of a 50 mM cysteine/1 M NaCl solution was used to saturate unoccupied sites on the chip. The direct binding measurement of P140 peptides to HSC70 was carried out at 25° C. with a constant flow rate of 20 μL/min. P140 peptide and analogues were injected in the flux at different concentrations for 3 min, followed by a dissociation phase of 3 min. The kinetic parameters were calculated using the BIAeval 3.1 software on a personal computer. Analysis was performed using the simple 1:1 Langmuir binding model. The specific binding profiles were obtained after subtracting the response signal from the control empty channel and from blank-buffer injection. The fitting to each model was judged by the χ^2 value and randomness of residue distribution compared to the theoretical model.

MRL/lpr mice [1] = experiment: Cellularity analysis (peripheral blood) in MRL/lpr mice; type: in vivo, mouse; settings: 100 μg/100 μL, 5 days after unique injection
Procedure: MRL/lpr mice were injected with 100 μg/100 μL of P140 or P140(MO) and cellularity (peripheral blood) was studied 5 days after this unique injection. The count includes all the leucocytes. In view of the low number of tested mice, a non parametric statistical test has been realised Mann-Whitney).

[2] = Stability of the peptides at 37° C. (HPLC peak area); type: physicochemical; settings: for 95% of stability (predicted): time to 95% from linear equation; for Stability (%) Linear equation: slope: y = stability %, x = days; for Stability (%): 10% mannitol
Procedure: The stability of the peptide SEQ ID NO: 1 in which the serine at position 10 is phosphorylated and the methionine at position 4 is oxydized (P140(MO)), and the peptide SEQ ID NO: 1 in which the serine at position 10 is phosphorylated (P140) was measured at 37° C., in a solution of 10% (v/v) mannitol. For each peptide, 3 concentrations have been tested: 200, 100 and 50 μg/mL.
At the indicated time, the integrity of P140 and P140(MO) peptides was measured in saline by high-performance liquid chromatography from the area of the peak corresponding to the intact peptide.
Stability is measured by using the HPLC peak surface.

MRL/lpr mice [3] = experiment: Survival analysis in MRL/lpr mice; type: in vivo, mouse; settings: female MRL/lpr mice, peptide intravenously from five weeks of age; NaCl control 25 weeks
Procedure: It has been determined that this mouse strain carries a mutation in the fas gene. Also, the MRL/lpr is a useful model to study behavioural and cognitive deficits found in autoimmune diseases and the efficacy of immunosuppressive agents [Monneaux et al., 2003, Eur. J. Immunol. 33, 287-296].
Five-week-old female MRL/lpr mice received P140 or peptide P140(MO) intravenously as described (Monneaux et al., 2003, Eur. J. Immunol. 33, 287-296). All experimental protocols were carried out with the approval of the local Institutional Animal Care and Use Committee (CREMEAS). As control, mice were injected with NaCl.
Twenty mice were used for each peptide or NaCl.
(§1) Statistical tests were performed using GraphPad Prism version 5.0. The two-way ANOVA test was used to analyze statistical significance of proteinuria differences between control and peptide-treated groups of mice. Survival of control and P140 analogue-treated female MRL/lpr mice was analyzed by the Kaplan-Meier method, and the significance of differences was determined by the log-rank test. For the other variables, statistical significance was assessed using the Student's t-test. p values less than 0.05 were considered significant.

MRL/lpr mice [4] = experiment: Proteinuria analysis in MRL/lpr mice; type: in vivo, mouse; settings: Albustix score, compared to the untreated mice
Procedure: Proteinuria of the above mice was measured in fresh urine using Albustix (Bayer Diagnostics) and was semi-quantitatively estimated according to a […] recommended by the manufacturer (no proteinuria=0; traces=1; 1+=2; 2+=3; 3+=4; 4+=5).
as §1

[5] = BIAcore, 25° C., 1:1 Langmuir model, global fit

## CC[C@H](C)[C@H](NC(=O)[C@H](Cc1ccccc1)NC(=O)[C@H](C)NC(=O)[C@H](Cc1ccc(O)cc1)NC(=O)CNC(=O)[C@H](CCCNC(=N)N)NC(=O)[C@@H]1CCCN1C(=O)[C@H](CCCCN)NC(=O)CNC(=O)[C@H](COP(=O)(O)O)NC(=O)[C@H](CCCNC(=N)N)NC(=O)[C@H](CCCCN)NC(=O)[C@H](CO)NC(=O)[C@H](Cc1ccc(O)cc1)NC(=O)[C@@H](NC(=O)[C@H](CC[S+](C)[O-])NC(=O)[C@H](Cc1c[nH]cn1)NC(=O)[C@@H](NC(=O)[C@@H](N)CCCNC(=N)N)[C@@H](C)CC)C(C)C)C(=O)N[C@@H](CCC(=O)O)C(=O)N[C@@H](Cc1ccc(O)cc1)C(=O)O (stereo partly shown) [P140(MO), RIHM(O)VYSKRS(PO3H2)GKPRGYAFIEY] (H-RIH[Met(O)]VYSKR[pS]GKPRGYAFIEY-OH)
HSC70 protein; BIAcore, 25° C., 1:1 Langmuir model
  Rmax: 39 RU
HSC70 protein; [5]
  KA: 524000 M⁻¹
  kd: 0.0022 s⁻¹
HSC70 protein; peptide 1.56 μM
  RI: 14 RU
  Req: 17.6 RU
  kobs: 0.004 s⁻¹
HSC70 protein; peptide 3.12 μM
  RI: 18.7 RU
  Req: 242 RU
  kobs: 0.0058 s⁻¹
HSC70 protein; peptide 6.25 μM
  RI: 25.9 RU
  Req: 29.9 RU
  kobs: 0.0094 s⁻¹
HSC70 protein; peptide 12.5 μM
  RI: 36.9 RU
  Req: 33.9 RU
  kobs: 0.0166 s⁻¹
HSC70 protein; peptide 25 μM
  RI: 53.4 RU
  Req: 36.3 RU
  kobs: 0.031 s⁻¹
MRL/lpr mice [1]
  Peripheral hypercellularity (leucocytes in peripheral blood): decrease peripheral hypercellularity
[2]; 50 μg/mL
  Stability (%) Linear equation: intercept: 99.677
  95% of stability (predicted): 2 years
  Stability (%) Linear equation: slope: y = −0.0064x +
[2]; 100 μg/mL
  Stability (%) Linear equation: intercept: 100.11
  95% of stability (predicted): 2 years +
  Stability (%) Linear equation: slope: y = −0.0064x +
[2]; 200 μg/mL
  95% of stability (predicted): ∞
[2]; 50 μg/mL, day 0
  Stability (%): 100%
[2]; 50 μg/mL, day 20
  Stability (%): 100%
[2]; 50 μg/mL, day 40
  Stability (%): 100%
[2]; 50 μg/mL, day 100
  Stability (%): 99.4%
[2]; 100 μg/mL, day 0
  Stability (%): 100%
[2]; 100 μg/mL, day 20
  Stability (%): 99.1%
[2]; 100 μg/mL, day 40
  Stability (%): 99.5%
[2]; 100 μg/mL, day 100
  Stability (%): 99.1%
[2]; 200 μg/mL, day 0
  Stability (%): 100%
[2]; 200 μg/mL, day 20
  Stability (%): 100%
[2]; 200 μg/mL, day 40
  Stability (%): 100%
[2]; 200 μg/mL, day 100
  Stability (%): 100%
MRL/lpr mice [3]
  Median survival of mice: > 40 weeks
MRL/lpr mice [4]
  Proteinuria: less important and appears lately
